Test results taken from patent US20240262857A1, “NOVEL UNIVERSAL ANTI-RNA VIRUS AGENTS” (priority 2021, published 2024).
pEC50: −log10 of the molar value. Read-outs that look alike come from different tables or passages of the source.

What was measured:
SARS-CoV-2 = test: microbe, parasite or virus in culture; assay type: cell-based
[1] = Cellular toxicity assay, Huh7 cells; assay type: cell-based; conditions: human, read-out: Cytotoxicity CC50 Huh7
[2] = Cellular toxicity assay, CEM cells; conditions: human
[3] = Cellular toxicity assay, Vero cells; conditions: African green monkey
[4] = Cellular toxicity assay, PBM cells; conditions: human
HCoV-OC43 = test: microbe, parasite or virus in culture; assay type: cell-based; conditions: Betacoronavirus 1, OC43
Vero cells [5] = test: Incubation of NHC in Vero cells, LC-MS/MS of deoxy-NHC derivatives; conditions: 4 h at 37° C.
CEM cells = test: Cellular toxicity assay, CEM cells; conditions: read-out: Cytotoxicity CC50 CEM; CEM cells
Vero cells [6] = test: Cellular toxicity assay, Vero cells; conditions: read-out: Cytotoxicity CC50 Vero; Vero cells
[7] = target: T1, ribonucleotide reductase (RNR) (Homo sapiens, UniProt P23921)
T1 sequence (P23921 1-792): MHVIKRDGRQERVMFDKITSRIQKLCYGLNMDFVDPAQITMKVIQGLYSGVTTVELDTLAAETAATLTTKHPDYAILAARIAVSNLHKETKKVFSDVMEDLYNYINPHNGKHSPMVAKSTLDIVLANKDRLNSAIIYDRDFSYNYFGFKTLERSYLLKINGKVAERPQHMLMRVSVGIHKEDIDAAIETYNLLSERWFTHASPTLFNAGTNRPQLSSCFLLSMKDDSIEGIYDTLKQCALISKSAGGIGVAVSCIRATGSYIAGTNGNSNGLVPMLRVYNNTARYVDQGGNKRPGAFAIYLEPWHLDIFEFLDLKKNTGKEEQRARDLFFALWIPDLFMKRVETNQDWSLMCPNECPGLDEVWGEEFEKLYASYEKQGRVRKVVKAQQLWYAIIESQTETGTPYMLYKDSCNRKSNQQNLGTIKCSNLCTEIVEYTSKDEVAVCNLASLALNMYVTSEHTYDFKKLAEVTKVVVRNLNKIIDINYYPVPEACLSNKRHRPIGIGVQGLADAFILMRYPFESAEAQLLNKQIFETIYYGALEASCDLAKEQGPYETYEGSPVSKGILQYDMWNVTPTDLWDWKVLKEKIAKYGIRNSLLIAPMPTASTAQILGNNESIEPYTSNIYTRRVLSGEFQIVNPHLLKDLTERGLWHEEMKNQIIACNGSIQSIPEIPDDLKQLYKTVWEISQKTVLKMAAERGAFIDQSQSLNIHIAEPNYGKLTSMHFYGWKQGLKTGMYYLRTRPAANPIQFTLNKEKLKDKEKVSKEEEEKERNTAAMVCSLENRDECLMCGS
T1 sequence (P31350 1-389 partner): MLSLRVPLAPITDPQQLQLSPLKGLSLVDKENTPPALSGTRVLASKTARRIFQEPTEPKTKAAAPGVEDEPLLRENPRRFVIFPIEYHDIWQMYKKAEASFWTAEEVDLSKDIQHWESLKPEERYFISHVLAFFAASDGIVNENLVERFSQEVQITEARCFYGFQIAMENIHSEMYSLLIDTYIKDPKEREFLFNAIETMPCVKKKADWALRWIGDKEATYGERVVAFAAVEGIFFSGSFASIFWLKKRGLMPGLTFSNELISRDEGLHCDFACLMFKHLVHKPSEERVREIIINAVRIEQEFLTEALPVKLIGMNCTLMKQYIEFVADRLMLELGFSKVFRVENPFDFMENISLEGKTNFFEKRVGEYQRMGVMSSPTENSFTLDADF

[8] = Severe acute respiratory syndrome coronavirus 2, Calu-3, Calu3 cells, read-out: Anti-SARS-CoV-2 Activity (Calu3) EC50
[9] = Severe acute respiratory syndrome coronavirus 2, Calu-3, Calu3 cells, read-out: Anti-SARS-CoV-2 Activity (Calu3) EC90
[10] = Severe acute respiratory syndrome coronavirus 2, Vero cells, read-out: Anti-SARS-CoV-2 Activity (Vero) EC50
[11] = Severe acute respiratory syndrome coronavirus 2, Vero cells, read-out: Anti-SARS-CoV-2 Activity (Vero) EC90

| Structure (SMILES) | pEC50 (SARS-CoV-2; [8]) | EC90 (SARS-CoV-2; [9]) | pEC50 (SARS-CoV-2; [10]) | EC90 (SARS-CoV-2; [11]) | CC50 [1] | CC50 [2] | CC50 [3] | CC50 [4] | pEC50 (SARS-CoV-2; Severe acute respiratory syndrome coronavirus 2, read-out: Anti-SARS-Cov-2 EC50) | EC90 (SARS-CoV-2; Severe acute respiratory syndrome coronavirus 2, read-out: Anti-SARS-Cov-2 EC90) | pEC50 (HCoV-OC43; read-out: Anti-Hcov-OC43 EC50) | EC90 (HCoV-OC43; read-out: Anti-Hcov-OC43 EC90) | deoxy-NHC-TP detected in vero cells (Vero cells [5]; 10 μM NHC, cell pellet) | deoxy-NHC-TP detected in vero cells (Vero cells [5]; 50 μM NHC, cell pellet) | level of deoxy-NHC, -MP and -DP in vero cells (Vero cells [5]; cell pellet) | deoxy-NHC or its derivatives in vero cell medium (Vero cells [5]; supernatant) | CC50 (CEM cells) | CC50 (Vero cells [6]) | ratio diphosphate : 2'-deoxy-diphosphate in the samples after RNR reaction [7] | ratio triphosphate : 2'-deoxy-triphosphate in the samples after RNR reaction [7] |
| --- | --- | --- | --- | --- | --- | --- | --- | --- | --- | --- | --- | --- | --- | --- | --- | --- | --- | --- | --- | --- |
| CC1(O)C(O)[C@H](n2ccc(NO)nc2=O)O[C@@H]1CO (stereo partly shown) | < 4.00 | > 100000 nM | 6.22 | 7400 nM | ≥ 100000 nM | > 100000 nM | > 100000 nM | > 100000 nM |  |  |  |  |  |  |  |  |  |  |  |  |
| [2H]C1(O)C(O)[C@H](n2ccc(NO)nc2=O)O[C@@H]1CO (stereo partly drawn) [D-NHC] | 6.70 | 900 nM | 7.00 | 250 nM | 27700 nM |  | 41600 nM | 24100 nM |  |  |  |  |  |  |  |  |  |  |  |  |
| O=c1nc(NO)ccn1[C@@H]1O[C@H](CO)[C@@H](O)[C@H]1O [NHC, N^4-hydroxycytidine] | 6.22 | 2000 nM | 6.70 | 420 nM |  |  |  |  | 6.52 | 800 nM | 6.10 | 1800 nM | not | trace amount | below limit of detection | no deoxy-NHC or its derivatives was detected | 2600 nM | 16500 nM |  |  |
| O=c1nc(NO)ccn1[C@@H]1O[C@H](COP(=O)(O)OP(=O)(O)O)[C@@H](O)[C@H]1O [NHC-DP] |  |  |  |  |  |  |  |  |  |  |  |  |  |  |  |  |  |  | around 100:0.1 | ~100:0.009 |
